Source: the supplement of paper PMC10307832

Experiments:
Test in all cases: relative viability (nuclei count vs DMSO), 5 days (fraction); higher = more cells survive
[1] = compound: C=C(c1ccc(C(=O)O)cc1)c1cc2c(cc1C)C(C)(C)CCC2(C)C [Bexarotene] + Cc1cc(Nc2cc(N3CCN(C)CC3)nc(Sc3ccc(NC(=O)C4CC4)cc3)n2)n[nH]1 [Tozasertib] (partner 0.1 µM)
Outline: (§1)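 Relative viability equals treated-well nuclei counts divided by vehicle-well nuclei counts. Counts came from 4× images of lung cancer cell lines grown in 1536-well plates for 5 days after pin-tool dosing on the day after seeding. Dosing used one drug alone or a fixed anchor-drug dose plus five library-drug doses (not always all listed) in √10 steps, and values are medians of duplicate plates.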

[2] = compound: C=C(c1ccc(C(=O)O)cc1)c1cc2c(cc1C)C(C)(C)CCC2(C)C [Bexarotene] + CC(C)C[C@H](NC(=O)[C@H](Cc1ccccc1)NC(=O)c1cnccn1)B(O)O [Bortezomib] (partner 0.002 µM)
Outline: as §1

[3] = compound: C=C(c1ccc(C(=O)O)cc1)c1cc2c(cc1C)C(C)(C)CCC2(C)C [Bexarotene] + Nc1ncn([C@H]2C[C@H](O)[C@@H](CO)O2)c(=O)n1 [Decitabine] (partner 2 µM)
Outline: as §1

[4] = compound: C=C(c1ccc(C(=O)O)cc1)c1cc2c(cc1C)C(C)(C)CCC2(C)C [Bexarotene] + NC(=O)Nc1cc(-c2cccc(F)c2)sc1C(=O)N[C@H]1CCCNC1 [AZD7762] (partner 0.2 µM)
Outline: as §1

| Cell Line | relative viability ([1]; first compound 0.08 µM) | relative viability ([1]; first compound 0.253 µM) | relative viability ([1]; first compound 0.8 µM) | relative viability ([1]; first compound 2.53 µM) | relative viability ([1]; first compound 8 µM) | relative viability ([2]; first compound 0.08 µM) | relative viability ([2]; first compound 0.253 µM) | relative viability ([2]; first compound 0.8 µM) | relative viability ([2]; first compound 2.53 µM) | relative viability ([2]; first compound 8 µM) | relative viability ([3]; first compound 0.08 µM) | relative viability ([3]; first compound 0.253 µM) | relative viability ([3]; first compound 0.8 µM) | relative viability ([3]; first compound 2.53 µM) | relative viability ([3]; first compound 8 µM) | relative viability ([4]; first compound 0.08 µM) | relative viability ([4]; first compound 0.253 µM) | relative viability ([4]; first compound 0.8 µM) | relative viability ([4]; first compound 2.53 µM) | relative viability ([4]; first compound 8 µM) |
| --- | --- | --- | --- | --- | --- | --- | --- | --- | --- | --- | --- | --- | --- | --- | --- | --- | --- | --- | --- | --- |
| NCI-H661 | 0.387 | 0.357 | 0.348 | 0.355 | 0.341 | 0.807 | 0.807 | 0.803 | 0.81 | 0.761 | 0.606 | 0.542 | 0.559 | 0.509 | 0.496 |  |  |  |  |  |
| HCC-366 | 0.169 | 0.118 | 0.119 | 0.0858 | 0.113 | 1.07 | 0.979 | 1.02 | 1.08 | 1.06 | 0.36 | 0.376 | 0.339 | 0.346 | 0.289 | 0.412 | 0.397 | 0.284 | 0.279 | 0.358 |
| NCI-H1944 | 0.323 | 0.29 | 0.307 | 0.299 | 0.257 |  |  |  |  |  | 0.493 | 0.472 | 0.504 | 0.464 | 0.383 | 0.738 | 0.733 | 0.749 | 0.694 | 0.739 |
| SW 1573 | 0.219 | 0.171 | 0.251 | 0.162 | 0.224 | 0.896 | 0.923 | 0.955 | 0.803 | 0.763 | 0.505 | 0.43 | 0.482 | 0.452 | 0.363 |  |  |  |  |  |
| COR-L 105 | 0.395 | 0.328 | 0.324 | 0.442 | 0.388 | 0.98 | 0.98 | 0.988 | 0.965 | 0.909 | 0.731 | 0.704 | 0.664 | 0.616 | 0.578 |  |  |  |  |  |
| EBC-1 |  |  |  |  |  | 0.63 | 0.541 | 0.415 | 0.555 | 0.442 |  |  |  |  |  |  |  |  |  |  |
| SK-LU-1 | 0.284 | 0.346 |  | 0.358 | 0.321 | 1.23 | 1.6 | 0.88 | 1.32 | 1.05 | 0.668 | 0.676 |  | 0.588 | 0.599 |  |  |  |  |  |
| SW 900 | 0.559 | 0.617 | 0.589 | 0.498 | 0.431 |  |  |  |  |  | 0.463 | 0.397 | 0.498 | 0.448 | 0.462 | 0.652 | 0.511 | 0.453 | 0.518 | 0.454 |
| NCI-H522 | 0.551 | 0.523 | 0.562 | 0.506 | 0.634 |  |  |  |  |  | 0.642 | 0.666 | 0.653 | 0.673 | 0.609 | 0.788 | 0.949 | 0.734 | 0.697 | 0.822 |
| NCI-H520 | 0.409 | 0.454 | 0.411 | 0.417 | 0.382 | 0.805 | 0.588 | 0.518 | 0.385 | 0.534 | 0.499 | 0.473 | 0.552 | 0.52 | 0.51 |  |  |  |  |  |
| UMC-11 | 0.224 | 0.202 | 0.202 | 0.21 | 0.221 | 0.877 | 0.796 | 0.8 | 1.03 | 0.637 | 0.605 | 0.589 | 0.604 | 0.634 | 0.539 |  |  |  |  |  |
